The source of these data is ChEMBL document CHEMBL3352326, “Synthesis of 2,3-di- and 2,2,3-trisubstituted-3-methoxycarbonyl-γ-butyrolactones as potent antitumor agents” (Eur J Med Chem, 2015).

Test [1] relates to HL-60. The experiment in a line: Induction of apoptosis in human HL60 cells assessed as late apoptosis cells level at 10 uM annexin V-PE and 7-AAD staining based by flow cytometry (reference value: 0.4%). Format: functional. (In general: A flow cytometer gives signals particle by particle.)
Test [2] can be described thus: Growth inhibition of drug resistant human HL60 cells at 10 uM after 72 hrs by MTS assay. Format: functional. The note with it: HL-60, 72 h, read-out: GI.
Test [3] is described as follows: Growth inhibition of human HL60 cells at 10 uM after 72 hrs by MTS assay. Format: functional. The note with it: HL-60, 72 h, read-out: GI. (Tetrazolium assays rely on reduction of a dye to a coloured formazan, in cell work by metabolically active cells.)
For test [4], the system named is HL-60. The test can be described thus: Induction of cell cycle arrest in human HL60 cells assessed as accumulation at S phase at 5 uM after 48 hrs by propidium iodide staining based flow cytometry (reference value: 45%). Format: functional.
Test [5] deals with HL-60. The experiment in a line: Induction of cell cycle arrest in human HL60 cells assessed as accumulation at S phase at 2 uM after 48 hrs by propidium iodide staining based flow cytometry (reference value: 45%). Format: functional.
Test [6] deals with HL-60. The experiment in a line: Induction of necrosis in human HL60 cells assessed as total LDH activity at 2 to 10 uM. Format: functional, cell-based.
The subject of test [7] is HL-60. The test can be described thus: Induction of cell cycle arrest in human HL60 cells assessed as accumulation at S phase at 10 uM after 48 hrs by propidium iodide staining based flow cytometry (reference value: 45%). Format: functional.
For test [8], the system named is HL-60. The test can be described thus: Induction of apoptosis in human HL60 cells assessed as late apoptosis cells level at 2 uM annexin V-PE and 7-AAD staining based by flow cytometry (reference value: 0.4%). Format: functional.
For test [9], the system named is HL-60. The test can be described thus: Induction of apoptosis in human HL60 cells assessed as dead cells level at 2 uM annexin V-PE and 7-AAD staining based by flow cytometry (reference value: 0.4%). Format: functional.
Test [10] concerns HL-60. The experiment in a line: Induction of apoptosis in human HL60 cells assessed as caspase-3 activation at 5 uM after 24 to 48 hrs by DEVD-AMC substrate based fluorescence assay. Format: functional, cell-based.
A short description of test [11]: Growth inhibition of human MCF7/R cells at 10 uM after 72 hrs by MTS assay. Format: functional. The following applies: MCF7R, read-out: GI.
In test [12] the test system is HL-60. The experiment in a line: Induction of cell cycle arrest in human HL60 cells assessed as accumulation at G2/M phase at 10 uM after 48 hrs by propidium iodide staining based flow cytometry (reference value: 11.6%). Format: functional.
Test [13] in a line: Growth inhibition of human PC3 cells at 10 uM after 72 hrs by MTS assay. Format: functional. The following applies: PC-3, 72 h, read-out: GI.
Test [14] relates to HL-60. The test can be described thus: Induction of apoptosis in human HL60 cells assessed as late apoptosis cells level at 5 uM annexin V-PE and 7-AAD staining based by flow cytometry (reference value: 0.4%). Format: functional.
Test [15] has as its system HL-60. The experiment in a line: Induction of cell cycle arrest in human HL60 cells assessed as accumulation at subG1 phase at 5 uM after 48 hrs by propidium iodide staining based flow cytometry (reference value: 0.5%). Format: functional.
For test [16], the system named is HL-60. The experiment in a line: Induction of apoptosis in human HL60 cells assessed as early apoptotic cells level at 2 uM annexin V-PE and 7-AAD staining based by flow cytometry (reference value: 18.5%). Format: functional.
The next test has as its system KB. The experiment in a line: Growth inhibition of human KB cells at 10 uM after 72 hrs by MTS assay. Format: functional. The note with it: read-out: GI.
Test [17] deals with HL-60. The experiment in a line: Induction of necrosis in intact human HL60 cells assessed as cytosolic LDH release at 2 to 10 uM. Format: functional, cell-based. (In general: LDH in the medium is a marker of cell lysis.)
In test [18] the test system is HL-60. The test can be described thus: Induction of cell cycle arrest in human HL60 cells assessed as accumulation at G0/G1 phase at 10 uM after 48 hrs by propidium iodide staining based flow cytometry (reference value: 42.9%). Format: functional.
The test system of test [19] is HL-60. The test can be described thus: Induction of cell cycle arrest in human HL60 cells assessed as accumulation at subG1 phase at 2 uM after 48 hrs by propidium iodide staining based flow cytometry (reference value: 0.5%). Format: functional.
Test [20] relates to HL-60. The experiment in a line: Induction of apoptosis in human HL60 cells assessed as early apoptotic cells level at 10 uM annexin V-PE and 7-AAD staining based by flow cytometry (reference value: 18.5%). Format: functional.
Test [21] in a line: Growth inhibition of human HCT116 cells at 10 uM after 72 hrs by MTS assay. Format: functional. The note with it: HCT-116, 72 h, read-out: GI.
Test [22] has as its system HL-60. The test can be described thus: Induction of apoptosis in human HL60 cells assessed as intact cells level at 5 uM annexin V-PE and 7-AAD staining based by flow cytometry (reference value: 80.7%). Format: functional.
The subject of test [23] is HL-60. The experiment in a line: Induction of cell cycle arrest in human HL60 cells assessed as accumulation at G0/G1 phase at 5 uM after 48 hrs by propidium iodide staining based flow cytometry (reference value: 42.9%). Format: functional.
Test [24] relates to HL-60. The experiment in a line: Induction of apoptosis in human HL60 cells assessed as dead cells level at 5 uM annexin V-PE and 7-AAD staining based by flow cytometry (reference value: 0.4%). Format: functional.
The test system of test [25] is HL-60. The experiment in a line: Induction of apoptosis in human HL60 cells assessed as intact cells level at 2 uM annexin V-PE and 7-AAD staining based by flow cytometry (reference value: 80.7%). Format: functional.
The next test relates to SK-OV-3. The test can be described thus: Growth inhibition of human SKOV3 cells at 10 uM after 72 hrs by MTS assay. Format: functional. The note with it: SK-OV-3, 72 h, read-out: GI.
Test [26] deals with HL-60. The experiment in a line: Induction of apoptosis in human HL60 cells assessed as early apoptotic cells level at 5 uM annexin V-PE and 7-AAD staining based by flow cytometry (reference value: 18.5%). Format: functional.
In another test the test system is MCF7. The test can be described thus: Growth inhibition of human MCF7 cells at 10 uM after 72 hrs by MTS assay. The note with it: MCF7, 72 h, read-out: GI. Format: functional.
For test [27], the system named is HL-60. The test can be described thus: Induction of cell cycle arrest in human HL60 cells assessed as accumulation at G0/G1 phase at 2 uM after 48 hrs by propidium iodide staining based flow cytometry (reference value: 42.9%). Format: functional.
Test [28] deals with HL-60. The test can be described thus: Induction of apoptosis in human HL60 cells assessed as dead cells level at 10 uM annexin V-PE and 7-AAD staining based by flow cytometry (reference value: 0.4%). Format: functional.
Test [29] concerns HL-60. The test can be described thus: Induction of cell cycle arrest in human HL60 cells assessed as accumulation at subG1 phase at 10 uM after 48 hrs by propidium iodide staining based flow cytometry (reference value: 0.5%). Format: functional.
The test system of test [30] is HL-60. The test can be described thus: Induction of cell cycle arrest in human HL60 cells assessed as accumulation at G2/M phase at 5 uM after 48 hrs by propidium iodide staining based flow cytometry (reference value: 11.6%). Format: functional.
For test [31], the system named is HL-60. The experiment in a line: Induction of cell cycle arrest in human HL60 cells assessed as accumulation at G2/M phase at 2 uM after 48 hrs by propidium iodide staining based flow cytometry (reference value: 11.6%). Format: functional.
For test [32], the system named is HL-60. The test can be described thus: Induction of apoptosis in human HL60 cells assessed as intact cells level at 10 uM annexin V-PE and 7-AAD staining based by flow cytometry (reference value: 80.7%). Format: functional.
The subject of test [33] is HL-60. The test can be described thus: Induction of necrosis in intact human HL60 cells assessed as cytosolic LDH release at 50 uM. Format: functional, cell-based.
In test [34] the test system is HL-60. The test can be described thus: Induction of cell cycle arrest in human HL60 cells assessed as accumulation at S phase at 50 nM after 48 hrs by propidium iodide staining based flow cytometry (reference value: 45%). Format: functional.
The subject of test [35] is HL-60. The experiment in a line: Induction of cell cycle arrest in human HL60 cells assessed as accumulation at G0/G1 phase at 50 nM after 48 hrs by propidium iodide staining based flow cytometry (reference value: 42.9%). Format: functional.
The subject of test [36] is HL-60. The experiment in a line: Induction of necrosis in intact human HL60 cells assessed as cytosolic LDH release at 1 uM. Format: functional, cell-based.
For test [37], the system named is HL-60. The experiment in a line: Induction of apoptosis in human HL60 cells assessed as dead cells level at 100 nM annexin V-PE and 7-AAD staining based by flow cytometry (reference value: 0.4%). Format: functional.
The subject of test [38] is HL-60. The test can be described thus: Induction of cell cycle arrest in human HL60 cells assessed as accumulation at G2/M phase at 50 nM after 48 hrs by propidium iodide staining based flow cytometry (reference value: 11.6%). Format: functional.
Test [39] deals with HL-60. The test can be described thus: Induction of apoptosis in human HL60 cells assessed as early apoptotic cells level at 100 nM annexin V-PE and 7-AAD staining based by flow cytometry (reference value: 18.5%). Format: functional.
Test [40] deals with HL-60. The test can be described thus: Induction of apoptosis in human HL60 cells assessed as late apoptosis cells level at 100 nM annexin V-PE and 7-AAD staining based by flow cytometry (reference value: 0.4%). Format: functional.
In test [41] the test system is HL-60. The experiment in a line: Induction of apoptosis in human HL60 cells assessed as intact cells level at 100 nM annexin V-PE and 7-AAD staining based by flow cytometry (reference value: 80.7%). Format: functional.
For test [42], the system named is HL-60. The experiment in a line: Induction of cell cycle arrest in human HL60 cells assessed as accumulation at subG1 phase at 50 nM after 48 hrs by propidium iodide staining based flow cytometry (reference value: 0.5%). Format: functional.

The source made the active and inactive calls. No cut-off for these calls is given here.

Consider `COC(=O)C1(Cc2ccc(OC)cc2)CC(=O)OC1(C)c1ccccc1` (stereo not drawn), for which the Activity stood at 4.25% in the test on HL-60 [1]; 25.6% with HL-60 [4]; 24% with HL-60 [5]; 29.7% in the test on HL-60 [7]; 0.65% with HL-60 [8]; 0.35% with HL-60 [9]. Further, the Activity is 13.1% in the test with HL-60 [12]; 2.2% in the test on HL-60 [14]; 38.9% in the test on HL-60 [15]; 37.65% in the test on HL-60 [16]; 19.5% in the test with HL-60 [18]; 14.1% in the test with HL-60 [19]. The Activity with HL-60 [20] is recorded as 53.35%; in the test with HL-60 [22] it was 50.55%; in the test with HL-60 [23], 23.4%; with HL-60 [24], 0.9%; in the test with HL-60 [25] it was 61.45%; with HL-60 [26], 46.4%. Besides, the Activity with HL-60 [27] amounted to 36.3%; with HL-60 [28], 1.65%; in the test on HL-60 [29] it was 37.7%; with HL-60 [30] it was 12.2%; in the test with HL-60 [31], 25.6%; in the test on HL-60 [32], 40.7%. Also, the inhibition of growth at 10 µM worked out at 92% in [2]; 82% in test [3]; 82% in [11]; 68% in test [13]; 95% in the test with KB; 61% in [21]. The inhibition of growth at 10 µM in the test on SK-OV-3 stood at 76%; with MCF7, 56%. For the same compound, the result in the test on HL-60 [6] and in the test with HL-60 [10] was Active. In the test on HL-60 [17], the outcome was inactive.
Consider `CC1=CC(=O)c2ccccc2C1=O`, for which the result with HL-60 [33] was Active.
With `COC(=O)C1(Cc2ccc(OC)cc2)CC(=O)OC1c1cccc(C(F)(F)F)c1` (stereo not drawn), the inhibition of growth at 10 µM in test [3] amounted to 14%; with KB, 25%; in test [21], 10%; in the test with MCF7 it was 15%.
With `COC(=O)c1ccc(CC2(C(=O)OC)CC(=O)OC2c2ccccc2)cc1` (stereo not drawn), the inhibition of growth at 10 µM in test [3] turned out to be 19%; in the test on KB it was 12%; in test [21], 0%; in the test on MCF7, 0%.
In the case of `COc1cccc2c1C(=O)c1c(O)c3c(c(O)c1C2=O)C[C@@](O)(C(=O)CO)C[C@@H]3O[C@H]1C[C@H](N)[C@H](O)[C@H](C)O1` [DOXORUBICIN], the Activity in the test with HL-60 [34] was determined as 32.5%; in the test with HL-60 [35], 23%; with HL-60 [37], 0.5%; with HL-60 [38], 40%; in the test with HL-60 [39] it was 81.65%; with HL-60 [40], 3.15%. The Activity is 14.7% in the test with HL-60 [41] and 4.5% with HL-60 [42]. Further, the result in the test with HL-60 [36] was inactive.
